{"source": "PubChem BioAssay AID1259407", "about": "(Chemical Carcinogenesis Research Information System (CCRIS), 2018)", "test_system": "CCRIS mutagenicity, Ames/micronucleus/aberration tests", "assay": "CCRIS mutagenicity studies", "key": {"[1]": {"conditions": "Test System: AMES SALMONELLA TYPHIMURIUM, Strain/Indicator: TA98, Metabolic Activation: NONE, Method: PREINCUBATION"}, "[2]": {"conditions": "Test System: AMES SALMONELLA TYPHIMURIUM, Strain/Indicator: TA100, Metabolic Activation: NONE, Method: PREINCUBATION"}, "[3]": {"conditions": "Test System: AMES SALMONELLA TYPHIMURIUM, Strain/Indicator: TA1535, Metabolic Activation: NONE, Method: PREINCUBATION"}}, "note": "The source made the active and inactive calls. The rule behind the calls is not given here."}
{"compound": "CC(C)(Cl)[N+](=O)[O-]", "values": [{"measurement": "mutagenic call", "setting": "Test System: AMES SALMONELLA TYPHIMURIUM, Strain/Indicator: TA98, Metabolic Activation: HAMSTER, LIVER, S-9, AROCLOR 1254 (30%), Method: PREINCUBATION", "value": "inactive; negative"}, {"measurement": "mutagenic call", "setting": "[1]", "value": "inactive; negative"}, {"measurement": "mutagenic call", "setting": "Test System: AMES SALMONELLA TYPHIMURIUM, Strain/Indicator: TA98, Metabolic Activation: RAT, LIVER, S-9, AROCLOR 1254 (30%), Method: PREINCUBATION", "value": "inactive; negative"}, {"measurement": "mutagenic call", "setting": "Test System: AMES SALMONELLA TYPHIMURIUM, Strain/Indicator: TA100, Metabolic Activation: HAMSTER, LIVER, S-9, AROCLOR 1254 (30%), Method: PREINCUBATION", "value": "inactive; negative"}, {"measurement": "mutagenic call", "setting": "[2]", "value": "active; positive"}, {"measurement": "mutagenic call", "setting": "Test System: AMES SALMONELLA TYPHIMURIUM, Strain/Indicator: TA100, Metabolic Activation: RAT, LIVER, S-9, AROCLOR 1254 (30%), Method: PREINCUBATION", "value": "inactive; negative"}, {"measurement": "mutagenic call", "setting": "Test System: AMES SALMONELLA TYPHIMURIUM, Strain/Indicator: TA1535, Metabolic Activation: HAMSTER, LIVER, S-9, AROCLOR 1254 (30%), Method: PREINCUBATION", "value": "inactive; negative"}, {"measurement": "mutagenic call", "setting": "[3]", "value": "inactive; negative"}, {"measurement": "mutagenic call", "setting": "Test System: AMES SALMONELLA TYPHIMURIUM, Strain/Indicator: TA1535, Metabolic Activation: RAT, LIVER, S-9, AROCLOR 1254 (30%), Method: PREINCUBATION", "value": "inactive; negative"}, {"measurement": "mutagenic call", "setting": "Test System: AMES SALMONELLA TYPHIMURIUM, Strain/Indicator: TA1538, Metabolic Activation: HAMSTER, LIVER, S-9, AROCLOR 1254 (30%), Method: PREINCUBATION", "value": "inactive; negative"}, {"measurement": "mutagenic call", "setting": "Test System: AMES SALMONELLA TYPHIMURIUM, Strain/Indicator: TA1538, Metabolic Activation: NONE, Method: PREINCUBATION", "value": "inactive; negative"}, {"measurement": "mutagenic call", "setting": "Test System: AMES SALMONELLA TYPHIMURIUM, Strain/Indicator: TA1538, Metabolic Activation: RAT, LIVER, S-9, AROCLOR 1254 (30%), Method: PREINCUBATION", "value": "inactive; negative"}]}
{"compound": "C=CC(O)C=C", "values": [{"measurement": "mutagenic call", "setting": "[1]", "value": "inactive; negative"}, {"measurement": "mutagenic call", "setting": "Test System: AMES SALMONELLA TYPHIMURIUM, Strain/Indicator: TA98, Metabolic Activation: S-9, Method: PREINCUBATION", "value": "inactive; negative"}, {"measurement": "mutagenic call", "setting": "[2]", "value": "inactive; negative"}, {"measurement": "mutagenic call", "setting": "Test System: AMES SALMONELLA TYPHIMURIUM, Strain/Indicator: TA100, Metabolic Activation: S-9, Method: PREINCUBATION", "value": "active; positive"}, {"measurement": "mutagenic call", "setting": "[3]", "value": "inactive; negative"}, {"measurement": "mutagenic call", "setting": "Test System: AMES SALMONELLA TYPHIMURIUM, Strain/Indicator: TA1535, Metabolic Activation: S-9, Method: PREINCUBATION", "value": "inactive; negative"}, {"measurement": "mutagenic call", "setting": "Test System: E.COLI, Strain/Indicator: WP2UVRA/PKM101, Metabolic Activation: NONE, Method: PREINCUBATION", "value": "inactive; negative"}, {"measurement": "mutagenic call", "setting": "Test System: E.COLI, Strain/Indicator: WP2UVRA/PKM101, Metabolic Activation: S-9, Method: PREINCUBATION", "value": "inactive; negative"}]}
{"compound": "O=P(O)(O)O", "values": [{"measurement": "mutagenic call", "setting": "End Point: IN VITRO CHROMOSOMAL ABERRATIONS, Test System: CHO CELLS, Metabolic Activation: NONE", "value": "inactive; negative"}, {"measurement": "mutagenic call", "setting": "End Point: IN VITRO CHROMOSOMAL ABERRATIONS, Test System: CHO CELLS, Metabolic Activation: RAT, LIVER, S-9, AROCLOR 1254", "value": "active; positive"}, {"measurement": "mutagenic call", "setting": "Test System: AMES SALMONELLA TYPHIMURIUM, Strain/Indicator: TA97, Metabolic Activation: HAMSTER, LIVER, S-9, AROCLOR 1254, Method: PREINCUBATION", "value": "inactive; negative"}, {"measurement": "mutagenic call", "setting": "Test System: AMES SALMONELLA TYPHIMURIUM, Strain/Indicator: TA97, Metabolic Activation: NONE, Method: PREINCUBATION", "value": "inactive; negative"}, {"measurement": "mutagenic call", "setting": "Test System: AMES SALMONELLA TYPHIMURIUM, Strain/Indicator: TA97, Metabolic Activation: NONE, Method: STANDARD PLATE", "value": "inactive; negative"}, {"measurement": "mutagenic call", "setting": "Test System: AMES SALMONELLA TYPHIMURIUM, Strain/Indicator: TA97, Metabolic Activation: RAT, LIVER, S-9, AROCLOR 1254, Method: PREINCUBATION", "value": "inactive; negative"}, {"measurement": "mutagenic call", "setting": "Test System: AMES SALMONELLA TYPHIMURIUM, Strain/Indicator: TA97, Metabolic Activation: RAT, LIVER, S-9, PHENOBARBITAL, Method: STANDARD PLATE", "value": "inactive; negative"}, {"measurement": "mutagenic call", "setting": "Test System: AMES SALMONELLA TYPHIMURIUM, Strain/Indicator: TA97, Metabolic Activation: S-9, Method: PREINCUBATION", "value": "inactive; negative"}, {"measurement": "mutagenic call", "setting": "Test System: AMES SALMONELLA TYPHIMURIUM, Strain/Indicator: TA98, Metabolic Activation: HAMSTER, LIVER, S-9, AROCLOR 1254, Method: PREINCUBATION", "value": "inactive; negative"}, {"measurement": "mutagenic call", "setting": "[1]", "value": "inactive; negative"}, {"measurement": "mutagenic call", "setting": "Test System: AMES SALMONELLA TYPHIMURIUM, Strain/Indicator: TA98, Metabolic Activation: NONE, Method: STANDARD PLATE", "value": "inactive; negative"}, {"measurement": "mutagenic call", "setting": "Test System: AMES SALMONELLA TYPHIMURIUM, Strain/Indicator: TA98, Metabolic Activation: RAT, LIVER, S-9, AROCLOR 1254, Method: PREINCUBATION", "value": "inactive; negative"}, {"measurement": "mutagenic call", "setting": "Test System: AMES SALMONELLA TYPHIMURIUM, Strain/Indicator: TA98, Metabolic Activation: RAT, LIVER, S-9, PHENOBARBITAL, Method: STANDARD PLATE", "value": "inactive; negative"}, {"measurement": "mutagenic call", "setting": "Test System: AMES SALMONELLA TYPHIMURIUM, Strain/Indicator: TA100, Metabolic Activation: HAMSTER, LIVER, S-9, AROCLOR 1254, Method: PREINCUBATION", "value": "inactive; negative"}, {"measurement": "mutagenic call", "setting": "[2]", "value": "inactive; negative"}, {"measurement": "mutagenic call", "setting": "Test System: AMES SALMONELLA TYPHIMURIUM, Strain/Indicator: TA100, Metabolic Activation: NONE, Method: STANDARD PLATE", "value": "inactive; negative"}, {"measurement": "mutagenic call", "setting": "Test System: AMES SALMONELLA TYPHIMURIUM, Strain/Indicator: TA100, Metabolic Activation: RAT, LIVER, S-9, AROCLOR 1254, Method: PREINCUBATION", "value": "inactive; negative"}, {"measurement": "mutagenic call", "setting": "Test System: AMES SALMONELLA TYPHIMURIUM, Strain/Indicator: TA100, Metabolic Activation: RAT, LIVER, S-9, PHENOBARBITAL, Method: STANDARD PLATE", "value": "inactive; negative"}, {"measurement": "mutagenic call", "setting": "Test System: AMES SALMONELLA TYPHIMURIUM, Strain/Indicator: TA102, Metabolic Activation: NONE, Method: PREINCUBATION", "value": "inactive; negative"}, {"measurement": "mutagenic call", "setting": "Test System: AMES SALMONELLA TYPHIMURIUM, Strain/Indicator: TA102, Metabolic Activation: RAT, LIVER, S-9, AROCLOR 1254, Method: PREINCUBATION", "value": "inactive; negative"}, {"measurement": "mutagenic call", "setting": "Test System: AMES SALMONELLA TYPHIMURIUM, Strain/Indicator: TA102, Metabolic Activation: S-9, Method: PREINCUBATION", "value": "inactive; negative"}, {"measurement": "mutagenic call", "setting": "Test System: AMES SALMONELLA TYPHIMURIUM, Strain/Indicator: TA104, Metabolic Activation: NONE, Method: STANDARD PLATE", "value": "inactive; negative"}, {"measurement": "mutagenic call", "setting": "Test System: AMES SALMONELLA TYPHIMURIUM, Strain/Indicator: TA104, Metabolic Activation: RAT, LIVER, S-9, PHENOBARBITAL, Method: STANDARD PLATE", "value": "inactive; negative"}, {"measurement": "mutagenic call", "setting": "[3]", "value": "inactive; negative"}, {"measurement": "mutagenic call", "setting": "Test System: AMES SALMONELLA TYPHIMURIUM, Strain/Indicator: TA1537, Metabolic Activation: HAMSTER, LIVER, S-9, AROCLOR 1254, Method: PREINCUBATION", "value": "inactive; negative"}, {"measurement": "mutagenic call", "setting": "Test System: AMES SALMONELLA TYPHIMURIUM, Strain/Indicator: TA1537, Metabolic Activation: NONE, Method: PREINCUBATION", "value": "inactive; negative"}, {"measurement": "mutagenic call", "setting": "Test System: AMES SALMONELLA TYPHIMURIUM, Strain/Indicator: TA1537, Metabolic Activation: RAT, LIVER, S-9, AROCLOR 1254, Method: PREINCUBATION", "value": "inactive; negative"}]}
{"compound": "CC(=O)c1cc(O)c(C(C)C)c2cc(C)c(-c3c(C)cc4c(C(C)C)c(O)c(O)c(C=O)c4c3O)c(O)c12", "values": [{"measurement": "mutagenic call", "setting": "Test System: AMES SALMONELLA TYPHIMURIUM, Strain/Indicator: TA97A, Metabolic Activation: S-9, Method: STANDARD PLATE", "value": "inactive; negative"}, {"measurement": "mutagenic call", "setting": "Test System: AMES SALMONELLA TYPHIMURIUM, Strain/Indicator: TA98, Metabolic Activation: S-9, Method: STANDARD PLATE", "value": "inactive; negative"}, {"measurement": "mutagenic call", "setting": "Test System: AMES SALMONELLA TYPHIMURIUM, Strain/Indicator: TA100, Metabolic Activation: S-9, Method: STANDARD PLATE", "value": "inactive; negative"}, {"measurement": "mutagenic call", "setting": "Test System: AMES SALMONELLA TYPHIMURIUM, Strain/Indicator: TA102, Metabolic Activation: S-9, Method: STANDARD PLATE", "value": "inactive; negative"}]}
